From US11878980B2, “Solid forms of TTK inhibitor” (UNIVERSITY HEALTH NETWORK, priority 2016, dated 2024)
Counter-ions that a name gives are not always drawn.

Assays:
[1] = Solubility (Solubilitymax, pHmax) of crystalline forms; assay type: physicochemical
[2] = Pharmacokinetic analysis after single oral powder-in-capsule dose, rat plasma by LC/MS; assay type: in vivo, Sprague-Dawley rats; settings: for AUC0-last / Cmax: Rat, PO, 5 mg/kg; for plasma concentrations relative to free base compound (I) (in words): Sprague Dawley rats, oral
Protocol: (§1) A single oral, powder-in-capsule dose of each form was administered to three (n=3) female Sprague-Dawley rats and three male beagle dogs (n=3) at 5 mg active pharmaceutical ingredient per kg body weight. The plasma was then analyzed for compound plasma levels by LC/MS.
(§2) Compound was milled using a mortar and pestle and was carefully dispensed into a gelatin capsule, tared on an analytical balance. Loading continued until the desired compound mass was achieved. Size 9 capsules were used for rat dosing and size 3 capsules were used for dogs. Note: compound load was corrected for the bioequivalence ratio of each form.
(§3) Following oral dosing, blood was drawn from the lateral saphenous vein into lithium heparin coated tubes (rats) or K2EDTA coated tubes (dogs), at designated time points. Plasma was collected and stored frozen at −80° C. until analysis.
Plasma samples (20 μL) and spiked plasma standard samples were diluted five-fold with ice cold acetonitrile containing 100 ng/mL verapamil as internal standard. Samples and standards were filtered through 0.22 μm membranes in a 96-well format. Filtrates were then diluted with water to 30% acetonitrile.
10 μL of each sample and standard was injected onto a Waters Acquity CSH 1.7 μm 2.1×100 mm column at 0.6 mL/min by an Acquity UPLC. The C18 column was equilibrated at 5% acetonitrile in water. Compounds were eluted with a gradient to 99% acetonitrile. All mobile phases contained 0.1% (v/v) formic acid.
Column eluent was analyzed by an electrospray ionization tandem quadrupole mass spectrometry system (ESI-MS/MS, a Waters Xevo TQ). Eluent composition was analyzed for three ion-pairs specific for the internal standard and three ion-pairs specific for the analyte. Experimental samples were compared with standard curve samples to determine compound concentrations. Pharmacokinetic parameters were determined using the Excel plug-in “PKfit”.

[3] = Pharmacokinetic analysis after single oral powder-in-capsule dose, dog plasma by LC/MS; assay type: in vivo, beagle dogs; settings: for AUC0-last / Cmax: Dog, PO, 5 mg/kg; for plasma concentrations relative to free base compound (I) (in words): beagle dogs, oral
Protocol: as §1, §2, §3
Plasma samples (20 μL) and spiked plasma standard samples were diluted eleven fold with ice cold acetonitrile containing 40 ng/mL Diclofenac as internal standard. The mixture was vortexed for 2 min and centrifuged. The 0.5 μL supernatant was injected into a Waters Acquity BEH 1.7 μm 2.1×50 mm column at 0.6 mL/min by an Acquity UPLC. The column was equilibrated with 10% methanol in water. Compounds were eluted with a gradient to 95% methanol. Mobile phases contained 0.025% (v/v) formic acid and 1 mM NH4OAc.
Column eluent was analyzed by an electrospray ionization tandem quadrupole mass spectrometry system (ESI-MS/MS, an API-6500). Eluent composition was analyzed for one ion-pairs specific for the internal standard and one ion-pairs specific for the analyte. Experimental samples were compared with standard curve samples to determine compound concentrations. Pharmacokinetic parameters were determined using WinNonlin Professional 6.2.

[4] = Hygroscopicity (water sorption at 90% RH); assay type: physicochemical

Solubilitymax [1]	pHmax [1]	AUC0-last [2]	Cmax [2]	plasma concentrations relative to free base compound (I) (in words) [2]	AUC0-last [3]	Cmax [3]	plasma concentrations relative to free base compound (I) (in words) [3]	Hygroscopicity (water sorption at 90% RH) [4]	Compound
0.10 mg/mL	<1.14	2100 ng·h/mL	1120 ng/mL	increased plasma concentrations	4000 ng·h/mL	830 ng/mL	increased plasma concentrations	3.9%	Cc1cc(-c2cnn3c(NC[C@H]4C[C@@](C)(O)C4)cc(Oc4cccnc4)nc23)ccc1C(=O)NC1CC1 [Compound (I) bisphosphate hemihydrate]
0.63 mg/mL	0.79	1640 ng·h/mL	260 ng/mL	increased plasma concentrations	2760 ng·h/mL	570 ng/mL	increased plasma concentrations	2.3%	Cc1cc(-c2cnn3c(NC[C@H]4C[C@@](C)(O)C4)cc(Oc4cccnc4)nc23)ccc1C(=O)NC1CC1 [Compound (I) hydrobromide]
<0.001 mg/mL	–	140 ng·h/mL	11 ng/mL	–	40 ng·h/mL	8 ng/mL	–	0.8%	Cc1cc(-c2cnn3c(NC[C@H]4C[C@@](C)(O)C4)cc(Oc4cccnc4)nc23)ccc1C(=O)NC1CC1 [Compound (I), N-cyclopropyl-4-(7-((((1s,3s)-3-hydroxy-3-methylcyclobutyl)methyl)amino)-5-(pyridin-3-yloxy)pyrazolo[1,5-a]pyrimidin-3-yl)-2-methylbenzamide]
<0.001 mg/mL	–	–	–	–	–	–	–	–	Cc1cc(-c2cnn3c(NC[C@H]4C[C@@](C)(O)C4)cc(Oc4cccnc4)nc23)ccc1C(=O)NC1CC1 [Compound I-monohydrate]
